Measured values published in ChEMBL document CHEMBL3046510, “Synthesis and Fungicidal Activities of 4,5-Dihydro-7H-pyrano[3,4-c]isoxazole Derivatives” (1999).

Columns and labels:
Assay type in all cases: functional
Botrytis cinerea = assay: Fungicidal activity against Botryotinia fuckeliana infected foliar spray based compound pre-treated first-leaf stage cucumber plants assessed as cucumber gray mold disease control level at 250 ppm measured 4 to 5 days post fungal exposure relative to untreated control
Phytophthora infestans = assay: Fungicidal activity against Phytophthora infestans zoosporangia infected on foliar spray based compound pre-treated 14 days old tomato plants assessed as tomato late blight disease control level at 250 ppm measured 4 days post fungal exposure relative to untreated control
Blumeria graminis = assay: Fungicidal activity against Blumeria graminis infected on foliar spray based compound pre-treated first-leaf stage 7 day old barley plants assessed as barley powdery mildew disease control level at 250 ppm measured 7 days post fungal exposure relative to untreated control
Rhizoctonia solani = assay: Fungicidal activity against Rhizoctonia solani infected on foliar spray based compound pre-treated third-leaf stage rice plants assessed as rice sheath blight disease control level at 250 ppm measured 5 days post fungal exposure relative to untreated control
Puccinia recondita [1] = assay: Fungicidal activity against Puccinia recondita infected foliar spray based compound pre-treated first-leaf stage wheat plants assessed as wheat leaf rust disease control level at 250 ppm measured 10 days post fungal exposure relative to untreated control
Puccinia recondita [2] = assay: Fungicidal activity against Puccinia recondita infected foliar spray based compound pre-treated first-leaf stage wheat plants assessed as wheat leaf rust disease control level at 50 ppm measured 10 days post fungal exposure relative to untreated control
Puccinia recondita [3] = assay: Fungicidal activity against Puccinia recondita infected foliar spray based compound pre-treated first-leaf stage wheat plants assessed as wheat leaf rust disease control level at 2 ppm measured 10 days post fungal exposure relative to untreated control
Puccinia recondita [4] = assay: Fungicidal activity against Puccinia recondita infected foliar spray based compound pre-treated first-leaf stage wheat plants assessed as wheat leaf rust disease control level at 10 ppm measured 10 days post fungal exposure relative to untreated control

| Compound | Activity (Botrytis cinerea) | Activity (Phytophthora infestans) | Activity (Blumeria graminis) | Activity (Rhizoctonia solani) | Activity (Puccinia recondita [1]) | Activity (Puccinia recondita [2]) | Activity (Puccinia recondita [3]) | Activity (Puccinia recondita [4]) |
| --- | --- | --- | --- | --- | --- | --- | --- | --- |
| Clc1ccccc1C1OCCc2c1noc2COC1CCCCO1 (stereo not drawn) | 0% | 0% | 16% | 47% | 86% |  |  |  |
| CCON=Cc1onc2c1CCOC2c1ccc(Cl)cc1 (mixture of isomers) | 10% | 14% | 81% | 55% | 52% |  |  |  |
| C=CCON=Cc1onc2c1CCOC2c1ccc(Cl)cc1 (mixture of isomers) | 10% | 7% | 100% | 75% | 96% |  |  |  |
| OCc1onc2c1CCOC2c1ccc(Cl)cc1 (stereo not drawn) | 0% | 2% | 3% | 0% | 0% |  |  |  |
| CCON=Cc1onc2c1CCOC2c1ccccc1Cl (mixture of isomers) | 5% | 78% | 91% | 64% | 76% |  |  |  |
| OCc1onc2c1CCOC2c1ccccc1Cl (stereo not drawn) | 0% | 0% | 0% | 0% | 10% |  |  |  |
| ON=Cc1onc2c1CCOC2c1ccc(Cl)cc1 (mixture of isomers) | 0% | 10% | 0% | 45% | 86% |  |  |  |
| Clc1ccc(C2OCCc3c2noc3COC2CCCCO2)cc1 (stereo not drawn) | 0% | 9% | 0% | 0% | 0% |  |  |  |
| ON=Cc1onc2c1CCOC2c1ccccc1Cl (stereo not drawn) | 5% | 42% | 0% | 52% | 0% |  |  |  |
| Clc1ccccc1C1OCCc2c1noc2CBr (stereo not drawn) | 52% | 7% | 16% | 41% | 97% |  |  |  |
| Clc1ccc(C2OCCc3c2noc3CBr)cc1 (stereo not drawn) | 0% | 22% | 50% | 0% | 100% | 90% | 50% | 53% |
| O=Cc1onc2c1CCOC2c1ccccc1Cl (stereo not drawn) | 0% | 21% | 83% | 17% | 53% |  |  |  |
| O=Cc1onc2c1CCOC2c1ccc(Cl)cc1 (stereo not drawn) | 30% | 19% | 0% | 0% | 0% |  |  |  |
| CON=Cc1onc2c1CCOC2c1ccccc1Cl (stereo not drawn) | 0% | 50% | 41% | 29% | 0% |  |  |  |
| C=CCON=Cc1onc2c1CCOC2c1ccccc1Cl (mixture of isomers) | 0% | 14% | 80% | 17% | 46% |  |  |  |
| CON=Cc1onc2c1CCOC2c1ccc(Cl)cc1 (mixture of isomers) | 28% | 0% | 96% | 65% | 12% |  |  |  |
